Measurements reported in US8901118B2, “Compounds and methods for kinase modulation, and indications therefor” (Plexxikon Inc., priority 2010, dated 2014).

What was measured:
[1] = target: c-Kit kinase (Homo sapiens, UniProt P10721); assay: c-Kit kinase biochemical activity assay (AlphaScreen, biotin-(E4Y)10 phosphorylation); settings: 100 μM ATP; read-out: Biochemical Inhibition IC50 Kit
Method in brief: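 AlphaScreen read-out (streptavidin donor, anti-phosphotyrosine PY20 acceptor beads, EDTA stop) of c-Kit activity. Reaction: 0.75 ng kinase, 100 µM ATP, 30 nM biotin-(E4Y)10, 25 mM HEPES pH 7.5, 2 mM MgCl2, 2 mM MnCl2, 5% DMSO, 1 h room temperature. IC50 derived over an 8-point, two-fold dilution series.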

[2] = target: CYP3A4(BFC) (Homo sapiens, UniProt P08684); assay: CYP3A4(BFC) inhibition; assay type: in vitro ADME; settings: CYP3A4, substrate BFC; read-out: Cyp IC50 3A4(BFC)
Sequence of CYP3A4(BFC) (P08684 whole entry): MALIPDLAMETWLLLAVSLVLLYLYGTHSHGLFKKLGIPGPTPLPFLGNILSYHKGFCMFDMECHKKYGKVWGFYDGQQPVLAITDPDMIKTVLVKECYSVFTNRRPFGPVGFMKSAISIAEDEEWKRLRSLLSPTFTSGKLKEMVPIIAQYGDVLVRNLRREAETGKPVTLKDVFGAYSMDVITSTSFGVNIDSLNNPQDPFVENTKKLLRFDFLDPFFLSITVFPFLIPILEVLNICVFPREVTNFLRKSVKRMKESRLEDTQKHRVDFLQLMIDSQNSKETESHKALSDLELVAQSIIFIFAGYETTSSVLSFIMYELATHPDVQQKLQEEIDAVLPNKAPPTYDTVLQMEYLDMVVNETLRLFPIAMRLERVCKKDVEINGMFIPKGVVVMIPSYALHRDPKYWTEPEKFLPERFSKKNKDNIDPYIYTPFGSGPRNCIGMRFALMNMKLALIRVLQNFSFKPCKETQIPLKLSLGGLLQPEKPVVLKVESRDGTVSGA
Method in brief: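 This fluorescence assay tracks how test compounds reduce CYP3A4 turnover of BFC, with enzyme and substrate from BD Biosciences. A 10-point 1:1 dilution series in cofactor mix (1.3% NADPH Regeneration Solution A, 1.04% Solution B, 5% acetonitrile, 0.05% DMSO) was dispensed at 10 μL into 384 well plates, preincubated 10 minutes at 37° C, then incubated 30 min and read on a Tecan Safire 2.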

Sequence of c-Kit kinase (P10721 26-976): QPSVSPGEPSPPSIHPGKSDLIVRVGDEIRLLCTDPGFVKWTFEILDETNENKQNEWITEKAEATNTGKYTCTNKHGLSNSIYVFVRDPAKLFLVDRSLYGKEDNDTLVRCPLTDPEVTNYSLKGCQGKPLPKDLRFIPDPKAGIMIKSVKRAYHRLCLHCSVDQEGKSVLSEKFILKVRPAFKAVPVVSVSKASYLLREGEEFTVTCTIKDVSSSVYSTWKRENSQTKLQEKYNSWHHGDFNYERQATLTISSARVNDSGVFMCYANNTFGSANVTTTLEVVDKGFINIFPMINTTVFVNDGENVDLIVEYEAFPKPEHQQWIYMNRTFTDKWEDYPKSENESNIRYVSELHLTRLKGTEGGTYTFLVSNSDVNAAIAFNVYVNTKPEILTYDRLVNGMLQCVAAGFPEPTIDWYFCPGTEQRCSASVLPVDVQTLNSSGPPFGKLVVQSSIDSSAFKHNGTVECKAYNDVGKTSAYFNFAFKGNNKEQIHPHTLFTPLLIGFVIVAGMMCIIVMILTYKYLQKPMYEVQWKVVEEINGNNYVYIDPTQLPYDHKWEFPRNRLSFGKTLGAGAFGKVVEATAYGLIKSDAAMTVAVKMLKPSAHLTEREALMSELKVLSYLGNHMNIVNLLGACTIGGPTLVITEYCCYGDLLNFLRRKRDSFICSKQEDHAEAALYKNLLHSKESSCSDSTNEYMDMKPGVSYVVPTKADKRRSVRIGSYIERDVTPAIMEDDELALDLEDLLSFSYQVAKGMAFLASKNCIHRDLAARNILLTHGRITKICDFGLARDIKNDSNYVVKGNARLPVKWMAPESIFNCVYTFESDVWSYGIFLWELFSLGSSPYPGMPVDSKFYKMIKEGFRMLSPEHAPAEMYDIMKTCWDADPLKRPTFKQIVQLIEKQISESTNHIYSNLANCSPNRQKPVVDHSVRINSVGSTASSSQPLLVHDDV

Row | SMILES | IC50 [1] [µM] | IC50 [2] [µM]
1 | Cc1cnc2[nH]cc(Cc3cnc(Nc4ccc(C(F)(F)F)nc4)nc3)c2c1 [Compound P-3018, [5-(5-Methyl-1H-pyrrolo[2,3-b]pyridin-3-ylmethyl)-pyrimidin-2-yl]-(6-trifluoromethyl-pyridin-3-yl)-amine] | < 0.01 | < 5
2 | COc1ccc(Nc2ccc(Cc3c[nH]c4ncc(C)cc34)c(F)n2)cn1 [Compound P-3019, [6-fluoro-5-(5-methyl-1H-pyrrolo[2,3-b]pyridin-3-ylmethyl)-pyridin-2-yl]-(6-methoxy-pyridin-3-yl)-amine] | < 1 | > 10
3 | CCOc1ccc(Nc2ccc(Cc3c[nH]c4ncc(C)cc34)c(F)n2)cn1 [Compound P-3039, (6-ethoxy-pyridin-3-yl)-[6-fluoro-5-(5-methyl-1H-pyrrolo[2,3-b]pyridin-3-ylmethyl)-pyridin-2-yl]-amine] | < 0.1 | > 10
4 | COc1ccc(Nc2ccc(C(=O)c3c[nH]c4ncc(C)cc34)c(F)n2)cn1 [Compound P-3040, [2-Fluoro-6-(6-methoxy-pyridin-3-ylamino)-pyridin-3-yl]-(5-methyl-1H-pyrrolo[2,3-b]pyridin-3-yl)-methanone] | > 1 | > 10
5 | Cc1cnc2[nH]cc(Cc3ccc(Nc4ccc(C)nc4)nc3F)c2c1 [Compound P-3041, [6-Fluoro-5-(5-methyl-1H-pyrrolo[2,3-b]pyridin-3-ylmethyl)-pyridin-2-yl]-(6-methyl-pyridin-3-yl)-amine] | < 1 | 5 to 10
6 | Cc1cnc2[nH]cc(C(=O)c3ccc(Nc4ccc(C)nc4)nc3F)c2c1 [Compound P-3043, [2-Fluoro-6-(6-methyl-pyridin-3-ylamino)-pyridin-3-yl]-(5-methyl-1H-pyrrolo[2,3-b]pyridin-3-yl)-methanone] | < 1 | > 10
7 | Cc1ccc(Nc2ccc(C(=O)c3c[nH]c4ncc(Cl)cc34)c(F)n2)cn1 [Compound P-3044, (5-Chloro-1H-pyrrolo[2,3-b]pyridin-3-yl)-[2-fluoro-6-(6-methyl-pyridin-3-ylamino)-pyridin-3-yl]-methanone] | < 1 | > 10
8 | CCc1ccc(Nc2ccc(Cc3c[nH]c4ncc(C)cc34)c(F)n2)cn1 [Compound P-3048, (6-Ethyl-pyridin-3-yl)-[6-fluoro-5-(5-methyl-1H-pyrrolo[2,3-b]pyridin-3-ylmethyl)-pyridin-2-yl]-amine] | < 0.1 | > 10
9 | CCc1ccc(Nc2ccc(C(=O)c3c[nH]c4ncc(C)cc34)c(F)n2)cn1 [Compound P-3049, [6-(6-Ethyl-pyridin-3-ylamino)-2-fluoro-pyridin-3-yl]-(5-methyl-1H-pyrrolo[2,3-b]pyridin-3-yl)-methanone] | < 0.1 | > 10
10 | Cc1cnc2[nH]cc(Cc3ccc(Nc4ccc(C5CC5)nc4)nc3F)c2c1 [Compound P-3050, (6-Cyclopropyl-pyridin-3-yl)-[6-fluoro-5-(5-methyl-1H-pyrrolo[2,3-b]pyridin-3-ylmethyl)-pyridin-2-yl]-amine] | < 0.1 | > 10
11 | Cc1cnc2[nH]cc(C(=O)c3ccc(Nc4ccc(C5CC5)nc4)nc3F)c2c1 [Compound P-3051, [6-(6-Cyclopropyl-pyridin-3-ylamino)-2-fluoro-pyridin-3-yl]-(5-methyl-1H-pyrrolo[2,3-b]pyridin-3-yl)-methanone] | < 0.1 | > 10
12 | O=C(c1ccc(Nc2ccc(C3CC3)nc2)nc1F)c1c[nH]c2ncccc12 [Compound P-3052, [6-(6-Cyclopropyl-pyridin-3-ylamino)-2-fluoro-pyridin-3-yl]-(1H-pyrrolo[2,3-b]pyridin-3-yl)-methanone] | < 0.1 | > 10
13 | Fc1nc(Nc2ccc(C3CC3)nc2)ccc1Cc1c[nH]c2ncccc12 [Compound P-3053, (6-Cyclopropyl-pyridin-3-yl)-[6-fluoro-5-(1H-pyrrolo[2,3-b]pyridin-3-ylmethyl)-pyridin-2-yl]-amine] | < 0.1 | > 10
14 | COc1ccc(Nc2ccc(Cc3c[nH]c4ncnc(OC)c34)c(F)n2)cn1 [Compound P-4001, [6-Fluoro-5-(4-methoxy-7H-pyrrolo[2,3-d]pyrimidin-5-ylmethyl)-pyridin-2-yl]-(6-methoxy-pyridin-3-yl)-amine] | < 1 | > 10
15 | COc1ccc(Nc2ccc(Cc3c[nH]c4ncnc(C)c34)c(F)n2)cn1 [Compound P-4002, [6-Fluoro-5-(4-methyl-7H-pyrrolo[2,3-d]pyrimidin-5-ylmethyl)-pyridin-2-yl]-(6-methoxy-pyridin-3-yl)-amine] | < 1 | > 10

The next lines start with the values.

Row | IC50 [1] [µM] | IC50 [2] [µM] | SMILES
16 | < 1 | > 10 | COc1ncnc2[nH]cc(Cc3ccc(Nc4ccc(Cl)nc4)nc3F)c12 [Compound P-4003, (6-Chloro-pyridin-3-yl)-[6-fluoro-5-(4-methoxy-7H-pyrrolo[2,3-d]pyrimidin-5-ylmethyl)-pyridin-2-yl]-amine]
17 | < 0.1 | > 10 | COc1ncnc2[nH]cc(Cc3ccc(Nc4ccc(C5CC5)nc4)nc3F)c12 [Compound P-4004, (6-Cyclopropyl-pyridin-3-yl)-[6-fluoro-5-(4-methoxy-7H-pyrrolo[2,3-d]pyrimidin-5-ylmethyl)-pyridin-2-yl]-amine]
18 | < 0.1 | > 10 | CCOc1ccc(Nc2ccc(Cc3c[nH]c4ncnc(OC)c34)c(F)n2)cn1 [Compound P-4005, (6-Ethoxy-pyridin-3-yl)-[6-fluoro-5-(4-methoxy-7H-pyrrolo[2,3-d]pyrimidin-5-ylmethyl)-pyridin-2-yl]-amine]
19 | < 0.1 | > 10 | CCOc1ccc(Nc2ccc(Cc3c[nH]c4ncnc(C)c34)c(F)n2)cn1 [Compound P-4006, (6-Ethoxy-pyridin-3-yl)-[6-fluoro-5-(4-methyl-7H-pyrrolo[2,3-d]pyrimidin-5-ylmethyl)-pyridin-2-yl]-amine]
20 | < 0.1 | > 10 | CCc1ccc(Nc2ccc(Cc3c[nH]c4ncnc(OC)c34)c(F)n2)cn1 [Compound P-4007, (6-Ethyl-pyridin-3-yl)-[6-fluoro-5-(4-methoxy-7H-pyrrolo[2,3-d]pyrimidin-5-ylmethyl)-pyridin-2-yl]-amine]
21 | < 1 | 5 to 10 | CCOc1ccc(Nc2ccc(Cc3c[nH]c4ncnc(OCCOC)c34)c(F)n2)cn1 [Compound P-4008, (6-Ethoxy-pyridin-3-yl)-{6-fluoro-5-[4-(2-methoxy-ethoxy)-7H-pyrrolo[2,3-d]pyrimidin-5-ylmethyl]-pyridin-2-yl}-amine]
22 | < 0.1 | > 10 | CCc1ccc(Nc2ccc(Cc3c[nH]c4ncnc(C)c34)c(F)n2)cn1 [Compound P-4009, (6-Ethyl-pyridin-3-yl)-[6-fluoro-5-(4-methyl-7H-pyrrolo[2,3-d]pyrimidin-5-ylmethyl)-pyridin-2-yl]-amine]
23 | < 1 | > 10 | COc1ncnc2[nH]cc(Cc3ccc(Nc4ccc(C)nc4)nc3F)c12 [Compound P-4010, [6-Fluoro-5-(4-methoxy-7H-pyrrolo[2,3-d]pyrimidin-5-ylmethyl)-pyridin-2-yl]-(6-methyl-pyridin-3-yl)-amine]
24 | < 1 | 5 to 10 | CCn1cc(Nc2ccc(Cc3c[nH]c4ncnc(OC)c34)c(F)n2)cn1 [Compound P-4011, (1-Ethyl-1H-pyrazol-4-yl)-[6-fluoro-5-(4-methoxy-7H-pyrrolo[2,3-d]pyrimidin-5-ylmethyl)-pyridin-2-yl]-amine]
25 | < 1 | > 10 | CCOc1ncnc2[nH]cc(Cc3ccc(Nc4cnn(CC)c4)nc3F)c12 [Compound P-4012, [5-(4-Ethoxy-7H-pyrrolo[2,3-d]pyrimidin-5-ylmethyl)-6-fluoro-pyridin-2-yl]-(1-ethyl-1H-pyrazol-4-yl)-amine]
26 | < 1 | > 10 | CCn1cc(Nc2ccc(Cc3c[nH]c4ncnc(C)c34)c(F)n2)cn1 [Compound P-4013, (1-Ethyl-1H-pyrazol-4-yl)-[6-fluoro-5-(4-methyl-7H-pyrrolo[2,3-d]pyrimidin-5-ylmethyl)-pyridin-2-yl]-amine]
27 | < 0.1 | 5 to 10 | CCn1cc(Nc2ccc(Cc3c[nH]c4ncnc(OCCOC)c34)c(F)n2)cn1 [Compound P-4014, (1-Ethyl-1H-pyrazol-4-yl)-{6-fluoro-5-[4-(2-methoxy-ethoxy)-7H-pyrrolo[2,3-d]pyrimidin-5-ylmethyl]-pyridin-2-yl}-amine]
28 | < 0.1 | > 10 | COCCOc1ncnc2[nH]cc(Cc3ccc(Nc4ccc(C)nc4)nc3F)c12 [Compound P-4015, {6-Fluoro-5-[4-(2-methoxy-ethoxy)-7H-pyrrolo[2,3-d]pyrimidin-5-ylmethyl]-pyridin-2-yl}-(6-methyl-pyridin-3-yl)-amine]
29 | < 0.1 | > 10 | CCc1ccc(Nc2ccc(Cc3c[nH]c4ncnc(OCCOC)c34)c(F)n2)cn1 [Compound P-4016, (6-Ethyl-pyridin-3-yl)-{6-fluoro-5-[4-(2-methoxy-ethoxy)-7H-pyrrolo[2,3-d]pyrimidin-5-ylmethyl]-pyridin-2-yl}-amine]
30 | < 0.1 | > 10 | CCOc1ncnc2[nH]cc(Cc3ccc(Nc4ccc(C)nc4)nc3F)c12 [Compound P-4017, [5-(4-Ethoxy-7H-pyrrolo[2,3-d]pyrimidin-5-ylmethyl)-6-fluoro-pyridin-2-yl]-(6-methyl-pyridin-3-yl)-amine]
